Assay results: patent publication US4446047A, “Pleochroic anthraquinone dyes” (Imperial Chemical Industries PLC, priority 1981, dated 1984)

How the values were obtained:
[1] = prior-art symmetrical dyes; cited from earlier work
[2] = prior-art symmetrical dyes; cited from earlier work; remark: listed apart in the source
[3] = prior-art symmetrical dyes; cited from earlier work; remark: listed apart in the source
[4] = Molar extinction coefficient of the dye in liquid crystal material; type: physicochemical
From the text: Solubility is, however, only one of the factors affecting the achievement of good contrast in a liquid crystal display, another factor is the extinction coefficient of the dye in the liquid crystal material. One useful indication of the ability of a dye to give good contrast is the product of the molar extinction coefficient and the solubility (in moles/liter).

[5] = Solubility in other liquid crystal media (hosts) / liquid crystal materials; type: physicochemical
Experimental: (§1) The properties of some of the dyes described in the Examples were also measured in other liquid crystal media (hosts) at 20° C., unless otherwise stated, and the results are set out in Table 5.
(§2) The liquid crystal materials referred to in Table 5 as Hosts 1 to 12 have the following compositions:
(§3) Host 1 is the liquid crystal material E7, available from BDH Chemicals Ltd, which includes the compounds:
(§4) Host 2 is the liquid crystal material ZLI 1132, available from E Merck & Co, which includes the following compounds:
(§5) Host 3 is the liquid crystal material ZLI 1695, available from E Merck & Co, Darmstadt, West Germany. This has a clearing point (nematic to isotropic transition temperature) of 72° C.
(§6) Host 4 is a mixture of alkyl-cyanophenyl-dioxanes containing n-propyl, n-pentyl and n-heptyl chains.
(§7) Host 5 is the liquid crystal material ZLI 1565, available from E Merck & Co. This has a clearing point of 85° C.
(§8) Host 6 is the liquid crystal material ZLI 1624, available from E Merck & Co. This has a clearing point of 87° C.
(§9) Host 8 is the liquid crystal material RO-TN 430 available from Hoffmann La Roche Co. This has a clearing point of 69° C.
(§10) Host 9 is a mixed bicyclo-octane liquid crystal material containing the following compounds:
(§11) Host 10 is a mixture of liquid crystal materials based mainly on cyanobiphenyls and available from BDH Chemicals Ltd under the name E61.
(§12) Host 11 is a mixture of liquid crystal materials based mainly on cyanobiphenyls and available from BDH Chemicals Ltd under the name E49.
(§13) Host 12 is a mixture of fluorobicyclo(2,2,2)octane esters having negative anisotropy and containing a mixture of two compounds of the following formula: […]

[6] = Order parameter in liquid crystal medium E43; type: physicochemical; conditions: E43, 20° C., Table 4
Experimental: (§14) In order to provide maximum contrast between the two states it is important that the guest molecules adopt as closely as possible the time averaged orientation of the host, however this is achieved only to a limited degree because of random thermal fluctuations. The degree to which the orientation varies from the ideal is measured by a quantity known as the order parameter S which is given by the following equation: […]
where cos^2 θ is a time averaged term and θ is the instantaneous angular orientation of the molecules with respect to the time averaged orientation of the host molecules.

[7] = Order parameter in other liquid crystal media (hosts) / liquid crystal materials; type: physicochemical; conditions: 20° C.
Experimental: as §14
where cos^2 θ is a time averaged term and θ is the instantaneous angular orientation of the molecules with respect to the time averaged orientation of the host molecules. The determination of the value of the order parameter S is well understood in the art, see for example the paper, "A new absorptive mode reflective liquid crystal display device", by D. L. White and G. N. Taylor in the Journal of Applied Physics, 1974, 45, pages […] to 4723.
as §1, §2, §3, §4, §5, §6, §7, §8, §9, §10, §11, §12, §13

[8] = Absorption maximum in liquid crystal medium E43; type: physicochemical; conditions: E43, 20° C., Table 4
From the text: Detection was by means of a u.v. source (254 nm) and samples, corresponding to all the peaks in the chromatogram, were collected.

SMILES	solubility in the liquid crystal materials (in words) [1]	stability (in words) [2]	order parameters (in words) [3]	molar extinction coefficient [4]	Solubility ([5]; Host 2 (ZLI 1132), 20° C.)	Solubility ([5]; Host 3 (ZLI 1695), 20° C.)	Solubility ([5]; Host 10 (E61), -2° C.)	Solubility ([5]; Host 11 (E49), 20° C.)	Solubility ([5]; Host 11 (E49), -2° C.)	Solubility ([5]; Host 12 (fluorobicyclo(2,2,2)octane esters), 20° C.)	Order Parameter [6]	Order Parameter ([7]; Host 1 (E7))	Order Parameter ([7]; Host 2 (ZLI 1132))	Order Parameter ([7]; Host 3 (ZLI 1695))	Order Parameter ([7]; Host 4 (alkyl-cyanophenyl-dioxanes mixture))	Order Parameter ([7]; Host 9 (mixed bicyclo-octane))	Order Parameter ([7]; Host 10 (E61))	Order Parameter ([7]; Host 11 (E49))	Order Parameter ([7]; Host 12 (fluorobicyclo(2,2,2)octane esters))	λmax [8]
O=C1c2cccc(Sc3ccccc3)c2C(=O)c2cccc(Sc3ccccc3)c21 [1,5-bis(phenylthio)anthraquinone]	insufficient for practical purposes	adequate	high	–	–	–	–	–	–	–	–	–	–	–	–	–	–	–	–	–
CC(C)(C)c1ccc(Sc2cccc3c2C(=O)c2cccc(Sc4ccccc4)c2C3=O)cc1 [Example 11, 1-phenylthio-5-(4-t-butylphenylthio)anthraquinone]	–	–	–	11,000 cm^2.moles^-1	4.0%	2.5%	4.0%	> 5.0%	4.4%	2.0%	0.79	0.73	0.79	0.81	0.74	0.81	0.78	0.78	0.77	464 nm
